Consider one compound from US20220401591A1, “SYSTEM AND METHOD FOR QUANTITATIVE MAPPING OF MITOCHONDRIAL COMPLEX 1” (Lantheus Medical Imaging, Inc., priority 2012, published 2022).

Structures are written as SMILES.

One data set concerns MC-I. Kind of data set: ^18F-Flurpiridaz cardiac dynamic PET in infarcted pig, two-tissue compartment model. The format is in vivo, domestic swine. An excerpt: In some aspects the model is further developed. The modeling approach is based upon the two-tissue compartment model that describes the uptake and retention of a radiotracer that diffusively exchanges between the blood and tissue, and binds reversibly to a specific target site (FIG. 1A-1B). In this framework the concentration of radiotracer is considered in three distinct states: in the plasma (CP) or one of two tissue states, freely suspended in the tissue fluids (CF) or specifically bound to the target site (CB). Four parameters (K1, k2 , k3, k4) detail the physiological mechanisms underlying uptake and binding. K1 and k2 pertain to the rates of tracer influx (proportional to blood flow) from the vasculature and efflux back out of the tissue, respectively. The ratio K1/k2 is the partition coefficient VND. which reflects non-specific uptake based on properties of the tissue that are not expected to vary regionally. The rate at which tracer binds to the target site is related by k3. The bimolecular nature of associative binding makes k3 a compound parameter, the product of kon (an intrinsic binding rate characteristic to the ligand and target site) and Bmax (the density of the binding sites). For reversibly binding interactions such as between ^18F-Flurpiridaz and MC-I, the return of specifically bound tracer to the free state is portrayed by k4. Here k4 is synonymous with the intrinsic binding dissociation constant koff, which is not expected to differ between regions. In our cardiac application, two additional parameters (fLV, fRV) account for signal contamination from blood pools in the adjacent left and right ventricles. Combinations of individual rate constants yield macroparameters that are robust and informative with regard to radiotracer binding at the target site. These macroparameters include total volume of distribution (VT=[K1/k2][1+k3/k4], the equilibrium ratio of tracer concentration in tissue vs. plasma) and several variants of binding potential (BP, proportional to the target density). […]

The conditions of data set [1]: cited from earlier work.
The test system of data set [2] is mitochondrial complex I (MC-I). Kind of data set: 100 minute dynamic ^18F-Flurpiridaz PET study of binding in the heart, 2-compartment reversible model fit. Type of data set: in vivo, cynomolgus monkey. The settings on record: myocardium ROI, 100 min data, 1.25 mCi. An excerpt: Measurement of myocardial blood flow and binding potential with ^18F-Flurpiridaz can be approached with standard methods that are well understood and available in our laboratory. We use a four parameter (K1, k2, k3, k4), two tissue compartment model (FIGS. 1A-1B) to describe Flurpiridaz kinetics. In this model the tracer can be in one of two states, either free, as the injected molecule, or bound to a receptor. In the case of ^18F-Flurpiridaz, previous studies have shown that it binds reversibly to mitochondrial complex I and this is supported by the data presented herein (see Example 3). Referring to FIGS. 1A-1B, the product of plasma concentration (Cp) and transport rate K1 is the force driving the tracer from capillary plasma to the free space (i.e., both free and nonspecifically bound). Conceptually, CF represents free flurpiridaz and CB represents Flurpiridaz binding to the MC-I complex. Corrections (not shown) are included for spillover of activity.
Symbolically, K1 is the plasma-to-tissue transport rate, FE, the product of flow and the unidirectional capillary extraction fraction, E. k2 is a rate constant summarizing the egress from tissue to plasma. The rate constants k3 (kon*B′max) and k4 (koff) provide a summary description of binding and release of tracer. This model, with nonlinear least squares, was used to fit 100 minutes of data obtained in a study of binding in the heart of a cynomolgus monkey (see Example 3). It is anticipated that a similar approach will be adequate for validation studies in pigs. Graphical methods can also be studied and applied for determination of BP, as they may be more appropriate for quantitative parametric images and future translation to human studies. For example, consider: Logan J, Fowler J S, Volkow N D, et al. Graphical analysis of reversible radioligand binding from time-activity measurements applied to [N-11C-methyl]-(-)-cocaine PET studies in human subjects. J Cereb Blood Flow Metab. Sep 1990; 10(5):740-747 and Zhou Y, Ye W, Brasic J R, Crabb A H, Hilton J, Wong D F. A consistent and efficient graphical analysis method to improve the quantification of reversible tracer binding in radioligand receptor dynamic PET studies. Neuroimage. Feb 1 2009; 44(3):661-670. Software programs for both approaches have been developed. Realistic Monte Carlo simulation and sensitivity analysis can be used to determine the precision obtained with a given dose of ^18F-Flurpiridaz and the experimental duration of the study. The structure of ^18F-Flurpiridaz is detailed in FIG. 1C.
Based on preliminary data from a primate study using ^18F-Flurpiridaz, the parameter precision for estimating the MBF and BPP was evaluated. […]

[3] abbreviates: 17 segments fitted independently.

For `CC(C)(C)n1ncc(OCc2ccc(COCCF)cc2)c(Cl)c1=O` [^18F-Flurpiridaz], in the data set on MC-I (setting [3]), the “reduction of K1 in damaged compared to healthy tissue” value is on record as “about 50%” and the “reduction of VT in damaged compared to healthy tissue” value is “about 75%”. In the data set with MC-I (grand fit with common VND across regions), the “binding reduction (BP) in damaged tissues” value is “up to 90%”. The unidirectional extraction fraction in data set [1] (at all physiological flow values) is given as roughly 1. In addition, the “brain blood barrier passage” value in data set [1] (in vivo) was “crosses the brain blood barrier”. Besides, in data set [2], the “k2 (egress from tissue to plasma)” value is listed as 0.075 (SD=4.7%); the k3/k4 was 1.65 (SD=4.0%); the “k4 (koff, release)” value is on record as 0.016 (SD=10.4%). The “K1 (plasma-to-tissue transport rate)” value in data set [2] (SD from asymptotic covariance matrix) is reported as 0.51 (SD=1.5%).
